Results as given in patent publication US10525004B2, “Epithelial delivery” (BIOCOMPATIBLES UK LIMITED, priority 2008, dated 2020).

Experiments:
[1] = cited from earlier work
H357 = settings: LDH assay; all concentrations; FIG. 8
[2] = test system: intracellular P. gingivalis; experiment: Intracellular killing of P. gingivalis in H357 keratinocytes (invasion assay, colony count); assay type: cell-based; settings: H357 cells infected at MOI 100; metronidazole 0.01-10 μg/ml with 2 mg/ml vesicles; FIG. 7
Description: The polymer was prepared as in Example 9a. The film was dissolved by adding 2 ml of sterilized PBS (pH2) until the solution was clear. The concentration of polymer was 10 mg/ml. This was then sterilized using a 0.2 μm filter. The pH of the solution was adjusted to 7.4 with sterilized 1M NaOH and the vesicles purified by gel filtration chromatography using sterilized sepharose agar 4B (Sigma, Poole, Dorset, UK). […] After that, 200 μl of the medium was collected for H357 viability test using the LDH assay. Moreover, keratinocytes in a different plate treated in an identical manner was tested for H357 viability using propidium iodide and Hoechst. […] Serial dilutions of the lysate were used to determine colony count. […] This was then sonicated for 30 minutes to improve encapsulation. The mixture was not separated by size-exchange chromatography, so the free metronidazole was in equilibrium with the encapsulated metronidazole. P. gingivalis (ATCC 33277) at MOI 100 was used to infect H357 cells for 90 min. […] Saponin was then used to release intracellular bacteria from H357 cells and the number of intracellular P. gingivalis measured by counting the colonies from serial dilutions.

Compound	log P [1]	viability of H357 (H357)	recovered intracellular P. gingivalis (killing of intracellular bacteria) [2]
Cc1ncc([N+](=O)[O-])n1CCO [metronidazole, Metronidazole]	negative		
gentamycin		not significantly different	not able to kill the intracellular P. gingivalis
